Legend:
[1] = Solubility in the growing media during cytotoxicity testing; format: physicochemical; conditions: concentration of 100 µM
Description: (§1) A phosphatidylserine exposure was used to determine cell viability. Cells were washed with PBS, pelleted, and then incubated with annexin binding buffer containing Annexin V-APC (Life Technologies) for 15 min in the dark. Then, samples were analyzed by flow cytometry using FACSCanto II and FACSDiva (BD Biosciences, Franklin Lakes, NJ, USA). Data represents the percentage of non - apoptotic cells (Ann -APC-).
(§2) The cytotoxicity of a selection of the synthesized compounds was assessed after 24 hours of treatment in two human cell lines, Jurkat and HEK293T, coming from either tumoral T-cell lymphocytes or non-tumoral embryonic kidney fibroblasts, respectively. […]
(§3) the pro-apoptotic activity was not significant below 10 µM for most compounds in both cell lines, except for 5i, 5k and 5l in both cell lines, as well as 9a in Jurkat and 5e HEK293T cells (Figure S35A-B).
(§4) Moreover, the cytotoxicity of compounds 4d, 5b, 5h, 8, 10, and 12d at a higher concentration (100 µM) was assessed in both cell lines, Jurkat and HEK293T. The cytotoxicity of compounds 5b, 5h, and 12d could not be properly tested as the compounds were not soluble […]
(§5) effects observed for compound 4d in Jurkat cells and compound 8 in HEK293T cells (Figure S35C).
(§6) Figure S35. A) Jurkat and B) HEK293T cells were treated with 1 and 10 µM doses of the corresponding compound for 24 hours. Indicated doses of fluorizoline were used as a positive control of cell death. C) Jurkat and HEK293T cells were treated with 100 µM of the corresponding compound for 24 hours. Viability was measured by flow cytometry, and it is expressed as the mean ± SEM (n = 3) of the percentage of non -apoptotic cells (Ann-APC-). * p < 0.05, ** p < 0.01 *** p < […]
(§7) (1 picture or pasted object on this page, not shown here)

Jurkat cells = assay: Cell viability (Annexin V-APC, flow cytometry) in Jurkat cells; format: cell-based; conditions: 24 h
Description: as §1, §2, §3, §4, §5, §6, §7

HEK293T cells = assay: Cell viability (Annexin V-APC, flow cytometry) in HEK293T cells; format: cell-based; conditions: 24 h
Description: as §1, §2, §3, §4, §5, §6, §7

HaCaT cells = assay: UVA phototoxicity, caspase 3 activity in HaCaT cells; format: cell-based, human; conditions: for UVA radiation-induced caspase activity (phototoxicity): HaCaT, 1 h, UVA 5 J/cm2
Description: Irradiation with UVA and caspase 3 activity measurement […]
culture media was exchanged with PBS and the cells were sham or UVA (5 J/cm2) irradiated using the BS-02 irradiation chamber (Opsytec Dr. Gröbel, Ettlingen Germany). Media was added to the cells and after 4 h incubation, caspase 3 activity was measured as described previously.[33] Protein quantification was done with the Bio-Rad DC protein assay kit (Bio-Rad Laboratories, Hercules, CA) according to the manufacturer protocol.
We compared the phototoxic potential of five of our test compounds (8, 10, 5b, 5h, 4b) as well as the FDA-approved AhR activator […]
induced caspase activity at a concentration of 100 nM (Figure S36A). At a 10-fold higher concentration (1 µM) two of the test compounds […]
Figure S36. […] For statistical analysis a two-way ANOVA (Tukey post-hoc) was performed and data are shown as mean ± SEM. (*, p ≤ 0.05). […]

[2] = molecular target: T1, aryl hydrocarbon receptor (AhR) (Homo sapiens, UniProt P35869); assay: AhR/XRE-dependent luciferase reporter gene assay in XRE-HepG2 cells; format: cell-based; conditions: for EC50: XRE-HepG2 cells, 8 h, unit as in the supplements, read-out: AhR/XRE-dependent luciferase activity EC50
T1 construct: AhR-dependent reporter gene activity was determined in human HepG2 cells stably transfected with an XRE; endogenous in cells; host or cells: XRE-HepG2 (human HepG2 hepatoma cells stably carrying an XRE-luciferase plasmid)
T1 sequence (P35869 11-848): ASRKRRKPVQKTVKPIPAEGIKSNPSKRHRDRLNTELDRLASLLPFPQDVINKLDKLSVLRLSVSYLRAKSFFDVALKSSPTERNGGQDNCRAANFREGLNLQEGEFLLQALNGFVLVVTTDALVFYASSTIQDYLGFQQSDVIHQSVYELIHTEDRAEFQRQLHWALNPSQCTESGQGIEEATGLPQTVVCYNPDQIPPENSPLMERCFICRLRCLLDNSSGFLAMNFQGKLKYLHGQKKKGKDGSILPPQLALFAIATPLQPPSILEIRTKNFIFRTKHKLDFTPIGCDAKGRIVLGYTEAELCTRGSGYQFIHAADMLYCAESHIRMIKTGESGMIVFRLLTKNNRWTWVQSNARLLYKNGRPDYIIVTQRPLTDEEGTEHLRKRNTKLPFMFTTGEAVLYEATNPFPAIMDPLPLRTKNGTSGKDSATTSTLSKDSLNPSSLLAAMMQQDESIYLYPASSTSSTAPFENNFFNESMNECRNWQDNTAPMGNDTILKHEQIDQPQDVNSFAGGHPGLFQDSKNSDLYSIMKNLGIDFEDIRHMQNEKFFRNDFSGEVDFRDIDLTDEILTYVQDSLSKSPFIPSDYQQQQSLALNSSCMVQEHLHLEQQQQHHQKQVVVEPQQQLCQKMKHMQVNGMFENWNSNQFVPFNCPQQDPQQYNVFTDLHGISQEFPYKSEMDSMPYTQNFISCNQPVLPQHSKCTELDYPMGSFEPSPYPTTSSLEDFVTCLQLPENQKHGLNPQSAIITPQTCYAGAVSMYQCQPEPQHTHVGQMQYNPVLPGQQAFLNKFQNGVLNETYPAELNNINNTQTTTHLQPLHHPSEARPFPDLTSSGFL
Description: (f) AhR/XRE-dependent reporter gene activity results (EC50/μM).
Data are shown as mean ± SEM.
The human XRE -HepG2 reporter cell -line was a kind gift of K. Gradin and L. Poellinger (Karolinska Institute, Stockholm,
antibiotic/antimycotic solution, and 0.8 mg/ml G418. All cells were cultivated at 37 °C in a humidified atmosphere containing 5% CO 2.
AhR-dependent reporter gene activity was determined in human HepG2 cells stably transfected with an XRE -harboring luciferase plasmid (XRE-HepG2 cells). […] Luciferase activity was normalized to protein content.

Row | EC50 [2] | increase in the EC50 value relative to 5c ([2]; from reporter gene EC50 values) | SMILES | solubility in the growing media [1] | cytotoxicity / pro-apoptotic activity at 100 µM (Jurkat cells) | cytotoxicity / pro-apoptotic activity at 100 µM (HEK293T cells) | overlap between effective and toxic concentrations (HaCaT cells) | UVA radiation-induced caspase activity (phototoxicity) (HaCaT cells; 100 nM) | UVA radiation-induced caspase activity (phototoxicity) (HaCaT cells; 1 µM)
1 | 90 nM |  | CCOc1c2[nH]c3ccccc3c2cc2[nH]c3ccccc3c12 [compound 8, 6-ethoxy-ICZ] | slight turbidity | minimal pro-apoptotic activity | slight cytotoxic effects | minimal overlap | neither tapinarof nor our 6-ICZ compounds enhanced | exhibited similar effects to FICZ
2 | 520 nM | 1.4 fold | Cc1[nH]c2ccccc2c1-c1c2[nH]c3ccccc3c2cc2[nH]c3ccccc3c12 [5e] |  |  |  |  |  | 
